In patent US11766430B2, “Methods of using a phenoxypropylamine compound to treat pain” (Minerva Neurosciences, Inc., priority 2018, dated 2023):
Where “and” joins values, the source holds several entries; their conditions need not be identical. Equal entries are not always repeated.

Tested on: carrageenan-induced mechanical hyperalgesia in rats
Test: Carrageenan-induced mechanical hyperalgesia, paw pressure test, time course to 240 min (Example 2)
Format: in vivo, male Sprague-Dawley rats
Conditions: 3 mg/kg s.c.
Method: In this model, inflammation is induced by intraplantar injection of carrageenan (2%) into the right hindpaw of the rat. Three hours later, reaction thresholds are measured using the paw pressure test. Pressure is gradually applied to both hind paws (inflamed and control) of the rat, and reaction thresholds are determined as the pressure (g) required to elicit paw withdrawal or vocalization. Morphine (3 mg/kg, s.c.) was used as a positive control.
The experiments in this study used fifty (50) male Sprague-Dawley rats (SPF status, Janvier, France), each weighing 204-260 grams. The rats were housed in a temperature (20-24° C.) and relative humidity (45%-65%) controlled room and acclimated to an artificial day/night cycle of 12 hours light (6.30 a.m. to 6.30 p.m.)/12 hours darkness. Rats had free access to sterilized tap water and were fed ad libitum with pelleted complete diet (reference A04, S.A.F.E.). Rats were housed 4 per cage (cages Type E) and were acclimated for a period of at least 5 days before any testing. Each rat was identified by tail markings. Based on the SPF status of the animal facilities, there is no reason to expect that contaminants were present in the food, water or bedding, at levels capable of interfering with the results of the tests.
Pain Test: Static mechanical hyperalgesia was assessed using the Paw Pressure test or Randall & Selitto test (Randall, L. O. and Selitto, J. J., A method for measurement of analgesic activity on inflamed tissue, Arch Int Pharmacodyn, 1957(111): 409-419). This test requires the application of an increasing pressure on the hind paws between a flat surface and a blunt pointer. This test is usually used with animals with one hind paw inflamed by an injection or injured by ligation, and one normal hind paw, to evaluate drugs for analgesic action. The apparatus exerts a steadily increasing force and reaction threshold is determined as the pressure (g) required to elicit paw withdrawal and/or vocalization. In the experiment, animals were gently handled by the experimenter and static mechanical hyperalgesia was assessed. Each reaction threshold measurement was done for both hind paws.
Five (5) experimental groups of 10 rats each were used. Each group was first injected with of 100 μL of a 2% carrageenan suspension in the plantar aspect of the right hindpaw. Three hours after carrageenan injection, paw withdrawal threshold was measured using the paw pressure test (Baseline). The 5 groups were then administered the following: • Group 1: vehicle (0.5% HPMC), i.p., solution (negative control); • Group 2: MIN-117 (0.01 mg/kg, i.p.) in 0.5% HPMC, suspension; • Group 3: MIN-117 (0.1 mg/kg, i.p.) in 0.5% HPMC, suspension; • Group 4: MIN-117 (1 mg/kg, i.p.) in 0.5% HPMC, suspension; and • Group 5: morphine (3 mg/kg, s.c.) in 0.9% NaCl, solution (positive control).
After administering vehicle, MIN-117, or morphine, the antihyperalgesic effect of the compounds was evaluated using the paw pressure test at 0 min. (T0), 30 min., 60 min., 120 min., and 240 min.
Vehicle and MIN-117 were administered intraperitoneally at 10 mL/kg. Morphine was subcutaneously administered at 5 mL/kg. Dosing and testing were performed in a random order by a blinded experimenter except for the morphine-treated group. Doses were expressed in terms of free active substance. Rats were sacrificed at the end of the experiment by CO2 inhalation pending subsequent removal by a certified company.
Results were assessed as: the paw withdrawal threshold (mean±s.e.m.) in grams of contact pressure for each group, calculated from individual paw withdrawal thresholds; the percentage of variation of the paw withdrawal threshold calculated from the mean value of the vehicle-treated group; and/or the percentage of activity. To determine a statistical effect of the test substance and the reference substance, data were analyzed by a non-parametrical test. The significance level was p<0.05.

[1] = 120 min, listed as Morphine HCl
[2] = 240 min, listed as Morphine HCl
[3] = Baseline, listed as Morphine HCl
[4] = T0 (baseline before dosing), listed as Morphine HCl
[5] = T0 + 30 min, listed as Morphine HCl

Q: Which “Time of maximum effect on injured paw withdrawal threshold after treatment” value does the source give for `CN1CC[C@]23c4c5ccc(O)c4O[C@H]2[C@@H](O)C=C[C@H]3[C@H]1C5` [Morphine, reference compound] here?
A: The value was 30 min.

Q: And the “Nociceptive threshold, control paw, individual rats” value (30 min, listed as Morphine HCl)?
A: Its value is 680 g (9×) and 520 g.

Q: What about the “Nociceptive threshold, injured paw, individual rats” value (30 min, listed as Morphine HCl) of the same molecule?
A: Its value is 600 g and 620 g (2×) and 560 g and 640 g and 680 g (3×) and 440 g and 400 g.

Q: What about the “Nociceptive threshold, control paw, individual rats” value (60 min, listed as Morphine HCl) of the same molecule?
A: Its value is 580 g and 680 g (8×) and 520 g.

Q: What about the “Nociceptive threshold, injured paw, individual rats” value (60 min, listed as Morphine HCl) of the same molecule?
A: The value was 440 g and 600 g (3×) and 460 g and 620 g (2×) and 680 g and 480 g and 380 g.

Q: What about the “Nociceptive threshold, control paw, individual rats” value [1] of the same molecule?
A: The value was 480 g and 320 g and 440 g (3×) and 500 g and 380 g and 520 g and 460 g and 360 g.

Q: And the “Nociceptive threshold, injured paw, individual rats” value [1]?
A: The value was 280 g (3×) and 260 g and 400 g and 320 g (2×) and 440 g and 220 g and 200 g.

Q: What about the “Nociceptive threshold, control paw, individual rats” value [2] of the same molecule?
A: The value was 320 g (4×) and 360 g (4×) and 400 g and 420 g.

Q: And the “Nociceptive threshold, injured paw, individual rats” value [2]?
A: The value was 160 g (3×) and 180 g (3×) and 200 g (2×) and 240 g and 140 g.

Q: And the “Nociceptive threshold, control paw, individual rats” value [3]?
A: Its value is 320 g (2×) and 440 g and 420 g (3×) and 360 g (2×) and 460 g and 380 g.

Q: And the “Nociceptive threshold, injured paw, individual rats” value [3]?
A: The value was 160 g and 200 g (5×) and 220 g and 180 g (3×).

Q: And the “% activity, injured paw” value (T0 (baseline before dosing))?
A: The value was 2%.

Q: What about the “% variation vs control paw, injured paw” value (T0 (baseline before dosing)) of the same molecule?
A: Its value is −51%.

Q: What about the “% variation vs vehicle-treated group, injured paw” value (T0 (baseline before dosing)) of the same molecule?
A: The value was 5%.

Q: What about the “Nociceptive threshold, control paw (mean ± s.e.m.)” value (T0 (baseline before dosing)) of the same molecule?
A: Its value is 390.0 ± 15.6 g.

Q: And the “Nociceptive threshold, injured paw (mean ± s.e.m.)” value (T0 (baseline before dosing))?
A: Its value is 192 ± 5.3 g.

Q: What about the “Nociceptive threshold, control paw (mean ± s.e.m.)” value [4] of the same molecule?
A: Its value is 390. g.

Q: And the “Nociceptive threshold, injured paw (mean ± s.e.m.)” value [4]?
A: Its value is 192 g.

Q: What about the “% activity, injured paw” value (T0 + 30 min) of the same molecule?
A: The value was 230%.

Q: And the “% variation vs control paw, injured paw” value (T0 + 30 min)?
A: The value was −11%.

Q: And the “% variation vs pre-drug threshold, injured paw” value (T0 + 30 min)?
A: The value was 208%.

Q: What about the “Nociceptive threshold, control paw (mean ± s.e.m.)” value (T0 + 30 min) of the same molecule?
A: The value was 664 g.

Q: What about the “Nociceptive threshold, injured paw (mean ± s.e.m.)” value (T0 + 30 min) of the same molecule?
A: The value was 592 ± 31.3 g.

Q: What about the “% variation vs vehicle-treated group, injured paw” value [5] of the same molecule?
A: Its value is 233%.

Q: What about the “Nociceptive threshold, injured paw (mean ± s.e.m.)” value [5] of the same molecule?
A: Its value is 592 g.

Q: What about the “% activity, injured paw” value (T0 + 60 min) of the same molecule?
A: The value was 214%.

Q: What about the “% variation vs control paw, injured paw” value (T0 + 60 min) of the same molecule?
A: The value was −16%.

Q: And the “% variation vs pre-drug threshold, injured paw” value (T0 + 60 min)?
A: The value was 185%.

Q: And the “% variation vs vehicle-treated group, injured paw” value (T0 + 60 min)?
A: The value was 191%.

Q: And the “Nociceptive threshold, control paw (mean ± s.e.m.)” value (T0 + 60 min)?
A: Its value is 654 g.

Q: And the “Nociceptive threshold, injured paw (mean ± s.e.m.)” value (T0 + 60 min)?
A: The value was 548 ± 31.3 g.

Q: And the “Nociceptive threshold, injured paw (mean ± s.e.m.)” value (T0 + 60 min, listed as Morphine HCl)?
A: Its value is 548 g.

Q: What about the “% activity, injured paw” value (T0 + 120 min) of the same molecule?
A: Its value is 72%.

Q: And the “% variation vs control paw, injured paw” value (T0 + 120 min)?
A: The value was −31%.

Q: What about the “% variation vs pre-drug threshold, injured paw” value (T0 + 120 min) of the same molecule?
A: Its value is 56%.

Q: What about the “% variation vs vehicle-treated group, injured paw” value (T0 + 120 min) of the same molecule?
A: The value was 61%.

Q: What about the “Nociceptive threshold, control paw (mean ± s.e.m.)” value (T0 + 120 min) of the same molecule?
A: Its value is 434 g.

Q: What about the “Nociceptive threshold, injured paw (mean ± s.e.m.)” value (T0 + 120 min) of the same molecule?
A: Its value is 300 ± 23.5 g.

Q: And the “Nociceptive threshold, injured paw (mean ± s.e.m.)” value (T0 + 120 min, listed as Morphine HCl)?
A: Its value is 300 g.

Q: What about the “% activity, injured paw” value (T0 + 240 min) of the same molecule?
A: The value was −4%.

Q: And the “% variation vs control paw, injured paw” value (T0 + 240 min)?
A: Its value is −49%.

Q: What about the “% variation vs pre-drug threshold, injured paw” value (T0 + 240 min) of the same molecule?
A: Its value is −6%.

Q: And the “% variation vs vehicle-treated group, injured paw” value (T0 + 240 min)?
A: Its value is −3%.

Q: What about the “Nociceptive threshold, control paw (mean ± s.e.m.)” value (T0 + 240 min) of the same molecule?
A: The value was 354 g.

Q: And the “Nociceptive threshold, injured paw (mean ± s.e.m.)” value (T0 + 240 min)?
A: Its value is 180 ± 8.9 g.

Q: What about the “Nociceptive threshold, injured paw (mean ± s.e.m.)” value (T0 + 240 min, listed as Morphine HCl) of the same molecule?
A: Its value is 180 g.

Q: What about the “Effect on injured paw withdrawal threshold vs vehicle-treated group (in words)” value (from 30 min. to 120 min. after administration) of the same molecule?
A: Its value is “marked and significant increase”.
